From patent US20080306056A1, “PYRAZOLE-DERIVATIVES AS FACTOR Xa INHIBITORS” (SANOFI-AVENTIS DEUTSCHLAND GMBH, priority 2002, published 2008)
pKi: −log10 of the molar value.

Biological target: T1, human factor Xa (Homo sapiens, UniProt P00742)
T1 construct: 25 μl human factor Xa (Enzyme Research Laboratories, Inc; South Bend, Ind.); purchased Enzyme Research Laboratories, Inc; South Bend, Ind
Test: Factor Xa assay (chromogenic, purified enzyme)
Type: biochemical
Conditions: inhibition constant for factor Xa; chromogenic substrate S-2765 140 μM, enzyme 0.5 nM, 25° C., pH 7.8; Ki=IC50/{1+(substrate concentration/Km)}; read-out: Ki(FXa)
From the text: The ability of the compound of formulae I, Ib and Ic to inhibit factor Xa or factor VIIa or other enzymes like thrombin, plasmin, or trypsin can be assessed by determining the concentration of the compound of the formulae I, Ib and Ic that inhibits enzyme activity by 50%, i.e. the IC50 value, which was related to the inhibition constant Ki. Purified enzymes were used in chromogenic assays. The concentration of inhibitor that causes a 50% decrease in the rate of substrate hydrolysis was determined by linear regression after plotting the relative rates of hydrolysis (compared to the uninhibited control) versus the log of the concentration of the compound of formulae I, Ib and Ic. For calculating the inhibition constant Ki, the IC50 value was corrected for competition with substrate using the formula wherein Km is the Michaelis-Menten constant (Chen and Prusoff, Biochem.
Ki=IC50/{1+(substrate concentration/Km)}
Pharmacol. 22 (1973) 3099-3108; I. H. Segal, Enzyme Kinetics, 1975, John Wiley & Sons, New York, 100-125; which were incorporated herein by reference).
The IC50 was determined by combining in appropriate wells of a Costar half-area microtiter plate 25 μl human factor Xa (Enzyme Research Laboratories, Inc.; South Bend, Ind.) in TBS-PEG; 40 μl 10% (v/v) DMSO in TBS-PEG (uninhibited control) or various concentrations of the compound to be tested diluted in 10% (v/v) DMSO in TBS-PEG; and substrate S-2765 (N(α)-benzyloxycarbonyl-D-Arg-Gly-L-Arg-p-nitroanilide; Kabi Pharmacia, Inc.; Franklin, Ohio) in TBS-PEG.
The assay was performed by pre-incubating the compound of formulae I, Ib and Ic plus enzyme for 10 min. Then the assay was initiated by adding substrate to obtain a final volume of 100 μl. The initial velocity of chromogenic substrate hydrolysis was measured by the change in absorbance at 405 nm using a Bio-tek Instruments kinetic plate reader (Ceres UV900HDi) at 25° C. during the linear portion of the time course (usually 1.5 min after addition of substrate). The enzyme concentration was 0.5 nM and substrate concentration was 140 μM.
The inhibitory activity towards factor VIIa/tissue factor activity was determined using a chromogenic assay essentially as described previously (J. A. Ostrem et al., Biochemistry 37 (1998) 1053-1059 which was incorporated herein by reference). Kinetic assays were conducted at 25° C. in half-area microtiter plates (Costar Corp., Cambridge, Mass.) using a kinetic plate reader (Molecular Devices Spectramax 250). A typical assay consisted of 25 μl human factor VIIa and TF (5 nM and 10 nM, respective final concentration) combined with 40 μl of inhibitor dilutions in 10% DMSO/TBS-PEG buffer (50 mM Tris, 15 mM NaCl, 5 mM CaCl2, 0.05% PEG 8000, pH 8.15). Following a 15 minute preincubation period, the assay was initiated by the addition of 35 μl of the chromogenic substrate S-2288 (D-Ile-Pro-Arg-p-nitroanilide, Pharmacia Hepar Inc., 500 μM final concentration).

T1 sequence (P00742 235-488 limits assumed): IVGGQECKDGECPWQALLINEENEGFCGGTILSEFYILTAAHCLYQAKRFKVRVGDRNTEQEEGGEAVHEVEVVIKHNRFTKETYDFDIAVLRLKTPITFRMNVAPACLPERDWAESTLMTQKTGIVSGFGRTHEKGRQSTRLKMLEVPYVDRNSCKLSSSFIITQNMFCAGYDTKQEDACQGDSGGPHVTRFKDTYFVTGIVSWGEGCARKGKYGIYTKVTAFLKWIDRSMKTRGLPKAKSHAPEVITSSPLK
T1 sequence (P00742 41-179 partner limits assumed): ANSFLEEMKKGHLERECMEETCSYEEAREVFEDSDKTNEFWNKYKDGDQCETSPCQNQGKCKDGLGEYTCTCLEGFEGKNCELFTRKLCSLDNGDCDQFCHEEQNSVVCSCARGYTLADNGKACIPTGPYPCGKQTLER

pKi	SMILES
7.20	CC(C)N1CCC(NC(=O)c2cc(C(=O)N3CCC3)nn2Cc2cc(-c3ccc(Cl)s3)on2)CC1 [Example 77, 5-(Azetidine-1-carbonyl)-2-[5-(5-chloro-thiophen-2-yl)-isoxazol-3-ylmethyl]-2H-pyrazole-3-carboxylic acid (1-isopropyl-piperidin-4-yl)-amide]
7.20	CC(C)N1CCC(NC(=O)c2cc(C(=O)NCCC(=O)O)nn2Cc2cc(-c3ccc(Cl)s3)on2)CC1 [Example 58, 3-{[1-[5-(5-Chloro-thiophen-2-yl)-isoxazol-3-ylmethyl]-5-(1-isopropyl-piperidin-4-ylcarbamoyl)-1H-pyrazole-3-carbonyl]-amino}-propionic acid]
6.73	CC(C)N1CCC(NC(=O)c2cc(C(=O)O)n(Cc3cc(-c4ccc(Cl)s4)on3)n2)CC1 [Example 85, 2-[5-(5-Chloro-thiophen-2-yl)-isoxazol-3-ylmethyl]-5-(1-isopropyl-piperidin-4-ylcarbamoyl)-2H-pyrazole-3-carboxylic acid]
7.39	CC(C)OC(=O)CNC(=O)c1cc(C(=O)NC2CCN(C(C)C)CC2)n(CC(=O)Nc2ccc(Cl)cn2)n1 [Example 92, {[1-[(5-Chloro-pyridin-2-ylcarbamoyl)-methyl]-5-(1-isopropyl-piperidin-4-ylcarbamoyl)-1H-pyrazole-3-carbonyl]-amino}-acetic acid isopropyl ester]
6.75	CCOC(=O)C1CCN(C(=O)c2cc(C(=O)NC3CCN(C(C)C)CC3)n(Cc3cc(-c4ccc(Cl)s4)on3)n2)CC1 [Example 69, 1-[1-[5-(5-Chloro-thiophen-2-yl)-isoxazol-3-ylmethyl]-5-(1-isopropyl-piperidin-4-ylcarbamoyl)-1H-pyrazole-3-carbonyl]-piperidine-4-carboxylic acid ethyl ester]
6.85	CC(C)C(NC(=O)c1cc(C(=O)NC2CCN(C(C)C)CC2)n(Cc2cc(-c3ccc(Cl)s3)on2)n1)C(=O)O (stereo not shown) [Example 98, 2-{[1-[5-(5-Chloro-thiophen-2-yl)-isoxazol-3-ylmethyl]-5-(1-isopropyl-piperidin-4-ylcarbamoyl)-1H-pyrazole-3-carbonyl]-amino}-3-methyl-butyric acid]
6.84	CC(C)N1CCC(NC(=O)c2cc(C(=O)N3CCSC3)nn2Cc2cc(-c3ccc(Cl)s3)on2)CC1 [Example 78, 2-[5-(5-Chloro-thiophen-2-yl)-isoxazol-3-ylmethyl]-5-(thiazolidine-3-carbonyl)-2H-pyrazole-3-carboxylic acid (1-isopropyl-piperidin-4-yl)-amide]

The next lines start with the compound.

SMILES	pKi
CC(C)N1CCC(NC(=O)c2cc(-c3cccs3)nn2Cc2csc(-c3ccc(Cl)s3)n2)CC1 [Example 14, 2-[2-(5-Chloro-thiophen-2-yl)-thiazol-4-ylmethyl]-5-thiophen-2-yl-2H-pyrazole-3-carboxylic acid (1-isopropyl-piperidin-4-yl)-amide]	7.34
CC(C)N1CCC(NC(=O)c2cc(-c3n[nH]c(=O)o3)nn2Cc2cc(-c3ccc(Cl)s3)on2)CC1 [Example 29, 2-[5-(5-Chloro-thiophen-2-yl)-isoxazol-3-ylmethyl]-5-(5-oxo-4,5-dihydro-[1,3,4]oxadiazol-2-yl)-2H-pyrazole-3-carboxylic acid (1-isopropyl-piperidin-4-yl)-amide]	6.81
CC(C)N1CCC(NC(=O)c2cc(C(C)(C)C)nn2Cc2cc(-c3ccc(Cl)s3)on2)CC1 [Example 9, 5-tert-Butyl-2-[5-(5-chloro-thiophen-2-yl)-isoxazol-3-ylmethyl]-2H-pyrazole-3-carboxylic acid (1-isopropyl-piperidin-4-yl)-amide]	6.48
CC(C)N1CCC(NC(=O)c2cc(C(=O)N3CCNC(=O)C3)nn2Cc2cc(-c3ccc(Cl)s3)on2)CC1 [Example 41, 2-[5-(5-Chloro-thiophen-2-yl)-isoxazol-3-ylmethyl]-5-(3-oxo-piperazine-1-carbonyl)-2H-pyrazole-3-carboxylic acid (1-isopropyl-piperidin-4-yl)-amide]	7.09
CC(C)N1CCC(NC(=O)c2cc(C(=O)NCCS(N)(=O)=O)nn2Cc2cc(-c3ccc(Cl)s3)on2)CC1 [Example 44, 1-[5-(5-Chloro-thiophen-2-yl)-isoxazol-3-ylmethyl]-1H-pyrazole-3,5-dicarboxylic acid 5-[(1-isopropyl-piperidin-4-yl)-amide] 3-[(2-sulfamoyl-ethyl)-amide]]	7.34
CC(C)N1CCC(NC(=O)c2cc(-c3cccs3)n(Cc3cc(-c4ccc(Cl)s4)on3)n2)CC1 [Example 2, 1-[5-(5-Chloro-thiophen-2-yl)-isoxazol-3-ylmethyl]-5-thiophen-2-yl-1H-pyrazole-3-carboxylic acid (1-isopropyl-piperidin-4-yl)-amide]	7.49
CC(C)N1CCC(NC(=O)c2cc(C(=O)N3CCOCC3)nn2Cc2cc(-c3ccc(Cl)s3)on2)CC1 [Example 25, 2-[5-(5-Chloro-thiophen-2-yl)-isoxazol-3-ylmethyl]-5-(morpholine-4-carbonyl)-2H-pyrazole-3-carboxylic acid (1-isopropyl-piperidin-4-yl)-amide]	7.02
CC(C)N1CCC(NC(=O)c2cc(C(=O)OCCN3CCNC3=O)nn2Cc2cc(-c3ccc(Cl)s3)on2)CC1 [Example 32, 1-[5-(5-Chloro-thiophen-2-yl)-isoxazol-3-ylmethyl]-5-(1-isopropyl-piperidin-4-ylcarbamoyl)-1H-pyrazole-3-carboxylic acid 2-(2-oxo-imidazolidin-1-yl)-ethyl ester]	7.35
CC(C)N1CCC(NC(=O)c2cc(C(=O)N3CCN(CCO)CC3)nn2Cc2cc(-c3ccc(Cl)s3)on2)CC1 [Example 30, 2-[5-(5-Chloro-thiophen-2-yl)-isoxazol-3-ylmethyl]-5-[4-(2-hydroxy-ethyl)-piperazine-1-carbonyl]-2H-pyrazole-3-carboxylic acid (1-isopropyl-piperidin-4-yl)-amide]	6.58
CC(C)N1CCC(NC(=O)c2cc(C(=O)N3CCC4(CCCC4)CC3)nn2Cc2cc(-c3ccc(Cl)s3)on2)CC1 [Example 38, 5-(8-Aza-spiro[4.5]decane-8-carbonyl)-2-[5-(5-chloro-thiophen-2-yl)-isoxazol-3-ylmethyl]-2H-pyrazole-3-carboxylic acid (1-isopropyl-piperidin-4-yl)-amide]	6.03
CC(C)N1CCC(NC(=O)c2cc(C(=O)NC[Si](C)(C)C)nn2Cc2cc(-c3ccc(Cl)s3)on2)CC1 [Example 80, 1-[5-(5-Chloro-thiophen-2-yl)-isoxazol-3-ylmethyl]-1H-pyrazole-3,5-dicarboxylic acid 5-[(1-isopropyl-piperidin-4-yl)-amide] 3-trimethylsilanylmethyl-amide]	6.83
CC(C)N1CCC(NC(=O)c2cc(C(=O)N(C)C3CCS(=O)(=O)C3)nn2Cc2cc(-c3ccc(Cl)s3)on2)CC1 (stereo not shown) [Example 40, 1-[5-(5-Chloro-thiophen-2-yl)-isoxazol-3-ylmethyl]-1H-pyrazole-3,5-dicarboxylic acid 3-[(1,1-dioxo-tetrahydro-1-thiophen-3-yl)-methyl-amide] 5-[(1-isopropyl-piperidin-4-yl)-amide]]	6.91
COC(=O)c1cc(C(=O)NC2CCN(C(C)C)CC2)n(CC(=O)Nc2ccc(Cl)cn2)n1 [Example 50, 1-[(5-Chloro-pyridin-2-ylcarbamoyl)-methyl]-5-(1-isopropyl-piperidin-4-ylcarbamoyl)-1H-pyrazole-3-carboxylic acid methyl ester]	8.00
CCCc1nn(Cc2cc(-c3ccc(Cl)s3)on2)c(C(=O)NC2CCN(C(C)C)CC2)c1C#N [Example 10, 2-[5-(5-Chloro-thiophen-2-yl)-isoxazol-3-ylmethyl]-4-cyano-5-propyl-2H-pyrazole-3-carboxylic acid (1-isopropyl-piperidin-4-yl)-amide]	7.39
CC(C)N1CCC(NC(=O)c2c(C#N)cnn2CC(=O)Nc2ccc(Cl)cc2)CC1 [Example 57, 2-[(4-Chloro-phenylcarbamoyl)-methyl]-4-cyano-2H-pyrazole-3-carboxylic acid (1-isopropyl-piperidin-4-yl)-amide]	6.39
